PubChem BioAssay (NCI)
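Interpolation was linear, between the two tested concentrations surrounding the appropriate level; five concentrations were tested over 48 hours in 96-well plates. Here, GI50 denotes the concentration required for 50% inhibition of growth. TGI is the concentration that stops growth completely.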

Assays:
Assay in all cases: DTP human tumour cell line panel, 48 h
UO-31 renal = test system: UO-31 renal
SF-268 CNS = test system: SF-268 CNS
NCI-H226 lung = test system: NCI-H226 lung
CAKI-1 renal = test system: CAKI-1 renal
SK-OV-3 ovarian = test system: SK-OV-3 ovarian
HL-60(TB) leukemia = test system: HL-60(TB) leukemia
NCI-H522 lung = test system: NCI-H522 lung
A498 renal = test system: A498 renal
UACC-62 melanoma = test system: UACC-62 melanoma
PC-3 prostate = test system: PC-3 prostate

| SMILES | GI50 (UO-31 renal) | TGI (UO-31 renal) | GI50 (SF-268 CNS) | TGI (SF-268 CNS) | GI50 (NCI-H226 lung) | TGI (NCI-H226 lung) | GI50 (CAKI-1 renal) | TGI (CAKI-1 renal) | GI50 (SK-OV-3 ovarian) | TGI (SK-OV-3 ovarian) | GI50 (HL-60(TB) leukemia) | TGI (HL-60(TB) leukemia) | GI50 (NCI-H522 lung) | TGI (NCI-H522 lung) | GI50 (A498 renal) | TGI (A498 renal) | GI50 (UACC-62 melanoma) | TGI (UACC-62 melanoma) | GI50 (PC-3 prostate) | TGI (PC-3 prostate) |
| --- | --- | --- | --- | --- | --- | --- | --- | --- | --- | --- | --- | --- | --- | --- | --- | --- | --- | --- | --- | --- |
| O=C(NOCC1CC1)c1ccc(F)c(F)c1Nc1ccc(I)cc1Cl | 1.23 µM | 6.62 µM | 2.82 µM | > 100 µM | 2.77 µM | > 52.1 µM | 2.75 µM | > 100 µM | 4.35 µM | > 100 µM | 0.19 µM | 8.26 µM | 1.94 µM | 8.51 µM | 0.0639 µM | 0.492 µM | 0.064 µM | 1.41 µM | 3.03 µM | 16.5 µM |
| Cn1c(=O)c2[nH]c(CS(=O)(=O)Cc3nc4c([nH]3)c(=O)n(C)c(=O)n4C)nc2n(C)c1=O | – | > 100 µM | – | > 100 µM | – | > 100 µM | – | > 100 µM | – | > 100 µM | – | > 100 µM | – | > 100 µM | – | > 100 µM | – | > 100 µM | – | > 100 µM |
| Cc1[nH]c(/C=C2\C(=O)Nc3ccc(F)cc32)c(C)c1C(=O)NC[C@H](O)CN1CCOCC1 | 1.47 µM | > 10 µM | 4.83 µM | > 10 µM | 2.33 µM | > 10 µM | 1.66 µM | > 10 µM | 2.95 µM | > 10 µM | 1.03 µM | 5.43 µM | > 10 µM | > 10 µM | 3.29 µM | > 10 µM | 3.55 µM | > 10 µM | 2.64 µM | > 10 µM |
| CCN(CC)CCOc1ccc(/C=C2\CC3C4CC=C5C[C@@H](N6CCCC6)CC[C@]5(C)C4CC[C@]3(C)[C@H]2O)cc1OC (stereo partly drawn) | 4.29 µM | 16.9 µM | 11.8 µM | > 76.6 µM | 19.3 µM | 45.2 µM | 16.3 µM | 46.1 µM | 27.2 µM | > 70.8 µM | 13.8 µM | 35.2 µM | 9.06 µM | > 30.2 µM | 0.0502 µM | 1.46 µM | 16.6 µM | 34.6 µM | 4.66 µM | 45.3 µM |
| O=[N+]([O-])/C=C/c1c[nH]c2ccccc12 | 13.4 µM | 27.2 µM | 16 µM | 40.5 µM | 18.1 µM | 40.4 µM | 16.8 µM | 32.7 µM | 15.2 µM | 29.1 µM | 6.5 µM | 25 µM | 14.8 µM | 28.9 µM | 16.2 µM | 31.2 µM | 17.4 µM | 32.3 µM | 24.2 µM | 64.8 µM |
| O=c1cc(-c2ccccc2)nc2n1CCN2Cc1ccccc1 | 21.3 µM | 74.7 µM | 46.9 µM | > 100 µM | 54.7 µM | > 100 µM | 29.7 µM | > 100 µM | 51.3 µM | > 100 µM | 33.1 µM | 58.2 µM | 20.8 µM | 56.1 µM | 10.1 µM | 34.2 µM | 19.8 µM | 66.7 µM | 32.3 µM | > 100 µM |
| COc1cc(/C=C/C(=O)c2ccc(Cl)cc2)ccc1OS(=O)(=O)c1ccc(C)cc1 | 6.95 µM | 21.1 µM | 7.17 µM | 34 µM | 12.7 µM | 27.9 µM | 11.1 µM | 44.4 µM | 30.1 µM | > 100 µM | 3.29 µM | 14.8 µM | 2.93 µM | 12.2 µM | 28.8 µM | > 100 µM | 4.93 µM | 20.3 µM | 3.6 µM | 15.5 µM |
| O=C(Nc1ncc(Cc2ccccc2Cl)s1)c1ccc2c(c1)OCCO2 | 1.13 µM | > 100 µM | 1.8 µM | > 100 µM | 1.17 µM | 8.45 µM | 0.306 µM | > 47.9 µM | 0.537 µM | 22.6 µM | 0.396 µM | – | 0.261 µM | – | 0.151 µM | 0.693 µM | 0.569 µM | > 43.3 µM | 0.417 µM | > 100 µM |
| O=C1c2ccccc2-c2c1c1ccccc1c(=O)n2CCCN1CCOCC1 | 17.1 µM | > 100 µM | 6.52 µM | 26.1 µM | 26.4 µM | 84.5 µM | 14 µM | 30 µM | 17.7 µM | 45 µM | 24.9 µM | > 100 µM | 10.1 µM | > 63.3 µM | 21.7 µM | 71.4 µM | 5.83 µM | 21 µM | 26.2 µM | > 100 µM |
| O=C(NC(=S)Nc1ccc(Cl)cc1)c1ccccc1 | 99 µM | > 100 µM | 76 µM | > 100 µM | > 100 µM | > 100 µM | > 79.7 µM | > 100 µM | > 100 µM | > 100 µM | > 100 µM | > 100 µM | > 100 µM | > 100 µM | 33 µM | > 100 µM | > 50.4 µM | > 100 µM | > 100 µM | > 100 µM |
| C=C1C(=O)O[C@H]2[C@H]1CC/C(Cn1cc(-c3ccccc3)nn1)=C\CC[C@@]1(C)O[C@@H]21 | 0.87 µM | 1.96 µM | 5.63 µM | 13.4 µM | 4.6 µM | 11.2 µM | 1.28 µM | 4.83 µM | 9.95 µM | 17.9 µM | 1.49 µM | 5.64 µM | 0.811 µM | 1.66 µM | 7.8 µM | 15 µM | 1.87 µM | 8.22 µM | 5.65 µM | 12 µM |
| O=C1OC(=O)C2C1C1(c3ccccc3)C(c3ccccc3)=C(c3ccccc3)C2(c2ccccc2)S1=O (stereo not drawn) | > 100 µM | > 100 µM | > 100 µM | > 100 µM | > 100 µM | > 100 µM | > 100 µM | > 100 µM | > 100 µM | > 100 µM | > 100 µM | > 100 µM | > 100 µM | > 100 µM | > 100 µM | > 100 µM | 49.4 µM | > 100 µM | 87.7 µM | > 100 µM |
